Measured values from patent EP4707280A1, “1,4-CINEOLE DERIVATIVE AND INTERMEDIATE THEREOF, HERBICIDE CONTAINING SAID DERIVATIVE AS ACTIVE INGREDIENT, METHOD FOR USING HERBICIDE, AND METHOD FOR PREPARING AGROCHEMICAL COMPOSITION” (HOKKO CHEMICAL INDUSTRY CO., LTD., priority 2023, dated 2024).

Experiments:
Format in all cases: in vivo
Digitaria ciliaris [1] = test: Test Example 8: herbicidal effect test by stem and leaf treatment in upland field (low dose); conditions: Digitaria ciliaris; 7.5 g per 10 ares; sprayed seven days after sowing, upland soil; 14 days after application; read-out: weed inhibition rate
Monochoria vaginalis [2] = test: Test Example 1: herbicidal effect test by soil application in paddy rice; conditions: 120 g active ingredient per 10 ares, applied immediately after sowing, flooded pots, 14 days after application; for pest or weed control at 1200 g/ha: Pontederia vaginalis, soil, 336 h, read-out: weed inhibition rate
Outline: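 Pre-emergence test in puddled, flooded paddy soil (about 3 cm water), 30 seeds per weed sown at 0–1 cm depth in a glass greenhouse. Emulsifiable concentrate diluted in water and dropped onto the pots straight after sowing at 120 g a.i. per 10 ares. Weed inhibition (%) scored at 14 days, in duplicate.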

Scirpus juncoides = test: as above; conditions: 120 g active ingredient per 10 ares, applied immediately after sowing, flooded pots, 14 days after application; for pest or weed control at 1200 g/ha: Schoenoplectiella juncoides, soil, 336 h, read-out: weed inhibition rate
Outline: (§1)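 Paddy soil in Wagner pots (1/10,000 acre) was fertilized (N:P:K 16:16:16) and puddled, then weed seeds were sown 0–1 cm deep, 30 each. Pots were flooded to ~3 cm and kept in a glass greenhouse. Emulsifiable concentrate diluted in water was dropped on immediately after sowing at 120 g a.i. per 10 ares.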

[3] = tested on: Echinochloa crus-galli var. formosensis; test: as above; conditions: 120 g active ingredient per 10 ares, applied immediately after sowing, flooded pots, 14 days after application; for pest or weed control at 1200 g/ha: Echinochloa crus-galli, soil, 336 h, read-out: weed inhibition rate
Outline: as §1

Echinochloa crus-galli = test: Test Example 7: herbicidal effect test by soil application in upland field (low dose); conditions: Echinochloa crus-galli, 7.5 g per 10 ares, sprayed one day after sowing, 14 days after application, read-out: weed inhibition rate
Outline: (§2)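 Pre-emergence soil application: upland alluvial loam pots sown with weed seeds mixed into the top 1 cm; one day after sowing, a water-diluted emulsifiable concentrate was sprayed on the soil at 100 L per 10 a, delivering 7.5 g active ingredient per 10 a. Weed inhibition rate (%) scored 14 days after application, duplicate pots.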

[4] = tested on: Echinochloa crus-galli var. formosensis; test: Test Example 5: herbicidal effect test by soil application in paddy rice (low dose); conditions: Echinochloa crus-galli, soil, 336 h; 7.5 g per 10 ares; applied immediately after sowing, flooded pots; 14 days after application; read-out: weed inhibition rate
Outline: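 Paddy soil in Wagner pots was fertilized (N:P:K 16:16:16), puddled, sown with 30 seeds per weed species at 0–1 cm, then flooded to ~3 cm in a glass greenhouse. Emulsifiable concentrate diluted in water was dropper-applied into floodwater immediately, at 7.5 g active ingredient per 10 ares; duplicates, scored at 14 days.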

Digitaria ciliaris [5] = test: Test Example 7: herbicidal effect test by soil application in upland field (low dose); conditions: Digitaria ciliaris, 7.5 g per 10 ares, sprayed one day after sowing, 14 days after application, read-out: weed inhibition rate
Outline: as §2

Monochoria vaginalis [6] = test: Test Example 6: herbicidal effect test by application during growth period of paddy rice (low dose); conditions: Pontederia vaginalis; 7.5 g per 10 ares; applied seven days after sowing, flooded pots; 14 days after application; read-out: weed inhibition rate
Outline: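 Low-dose water application, 7.5 g a.i. per 10 ares, given by dropper into flooded pots (about 3 cm depth) 7 days after sowing of 30 weed seeds each at 0–1 cm. Evaluation of inhibition (%) took place 14 days later, duplicate per rate.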

Cc1ccccc1CO[C@@H]1C[C@]2(C(C)C)O[C@@]1(C)C[C@@H]2Br [1-16, (1S,2R,4R,5S)-5-bromo-1-methyl-2-[(2-methylphenyl)methoxy]-4-isopropyl-7-oxabicyclo[2.2.1]heptane]
≥ 80%: inhibition at 75 g/ha (Digitaria ciliaris [1]) | pest or weed control at 1200 g/ha (Monochoria vaginalis [2]) | pest or weed control at 1200 g/ha (Scirpus juncoides) | pest or weed control at 1200 g/ha [3] | inhibition at 75 g/ha (Echinochloa crus-galli) | inhibition at 75 g/ha [4]

CC(C)[C@]12C[C@@H](OCc3ccccc3Cl)[C@](C)(C[C@@H]1Br)O2 [1-20, (1S,2R,4R,5S)-5-bromo-2-[(2-chlorophenyl)methoxy]-1-methyl-4-isopropyl-7-oxabicyclo[2.2.1]heptane]
≥ 80%: inhibition at 75 g/ha (Digitaria ciliaris [1]) | pest or weed control at 1200 g/ha (Monochoria vaginalis [2]) | pest or weed control at 1200 g/ha (Scirpus juncoides) | pest or weed control at 1200 g/ha [3] | inhibition at 75 g/ha (Echinochloa crus-galli) | inhibition at 75 g/ha (Digitaria ciliaris [5]) | inhibition at 75 g/ha [4] | inhibition at 75 g/ha (Monochoria vaginalis [6])

CC(C)C1C[C@]2(C)O[C@@]1(C(C)C)C[C@H]2OCc1ccccc1F (stereo partly drawn) [1-133, (1S,2R,4R)-2-[(2-fluorobenzyl)oxy]-4,5-isopropyl-1-methyl-7-oxabicyclo[2.2.1]heptane]
≥ 80%: weed inhibition rate (Monochoria vaginalis [2]) | weed inhibition rate (Scirpus juncoides) | weed inhibition rate [3] | inhibition at 75 g/ha (Echinochloa crus-galli) | inhibition at 75 g/ha (Digitaria ciliaris [5]) | inhibition at 75 g/ha [4] | inhibition at 75 g/ha (Monochoria vaginalis [6])

CC(C)[C@]12C[C@@H](OCc3ccccc3F)[C@](C)(C[C@@H]1OS(=O)(=O)C(F)(F)F)O2 [1-525, (1R,2S,4S,5R)-5-((2-fluorobenzyl)oxy)-1-isopropyl-4-methyl-7-oxabicyclo[2.2.1]heptan-2-yl trifluoromethanesulfonate]
≥ 80%: inhibition at 75 g/ha (Digitaria ciliaris [1]) | pest or weed control at 1200 g/ha (Monochoria vaginalis [2]) | pest or weed control at 1200 g/ha (Scirpus juncoides) | pest or weed control at 1200 g/ha [3] | inhibition at 75 g/ha (Digitaria ciliaris [5]) | inhibition at 75 g/ha [4]

Cc1cccc(CO[C@@H]2C[C@]3(C(C)C)O[C@@]2(C)C[C@@H]3Br)c1 [1-680, (1S,2R,4R,5S)-5-bromo-1-methyl-2-[(3-methylphenyl)methoxy]-4-isopropyl-7-oxabicyclo[2.2.1]heptane]
≥ 80%: pest or weed control at 1200 g/ha (Monochoria vaginalis [2]) | pest or weed control at 1200 g/ha (Scirpus juncoides) | pest or weed control at 1200 g/ha [3] | inhibition at 75 g/ha (Echinochloa crus-galli) | inhibition at 75 g/ha (Digitaria ciliaris [5]) | inhibition at 75 g/ha [4]

CC(C)[C@]12C[C@@H](OCc3cccc(Cl)c3)[C@](C)(C[C@@H]1Br)O2 [1-692, (1S,2R,4R,5S)-5-bromo-2-[(3-chlorophenyl)methoxy]-1-methyl-4-isopropyl-7-oxabicyclo[2.2.1]heptane]
≥ 80%: pest or weed control at 1200 g/ha (Monochoria vaginalis [2]) | pest or weed control at 1200 g/ha (Scirpus juncoides) | pest or weed control at 1200 g/ha [3] | inhibition at 75 g/ha (Echinochloa crus-galli) | inhibition at 75 g/ha (Digitaria ciliaris [5]) | inhibition at 75 g/ha [4]

CC(C)[C@]12C[C@@H](OCc3ccc(Cl)cc3)[C@](C)(C[C@@H]1Br)O2 [1-693, (1S,2R,4R,5S)-5-bromo-2-[(4-chlorophenyl)methoxy]-1-methyl-4-isopropyl-7-oxabicyclo[2.2.1]heptane]
≥ 80%: pest or weed control at 1200 g/ha (Monochoria vaginalis [2]) | pest or weed control at 1200 g/ha (Scirpus juncoides) | pest or weed control at 1200 g/ha [3] | inhibition at 75 g/ha (Echinochloa crus-galli) | inhibition at 75 g/ha [4]

CC(C)[C@]12C[C@@H](OCc3c(Cl)cccc3Cl)[C@](C)(C[C@@H]1Br)O2 [1-712, (1S,2R,4R,5S)-5-bromo-2-[(2,6-dichlorophenyl)methoxy]-1-methyl-4-isopropyl-7-oxabicyclo[2.2.1]heptane]
≥ 80%: pest or weed control at 1200 g/ha (Monochoria vaginalis [2]) | pest or weed control at 1200 g/ha (Scirpus juncoides) | pest or weed control at 1200 g/ha [3] | inhibition at 75 g/ha (Echinochloa crus-galli) | inhibition at 75 g/ha (Digitaria ciliaris [5]) | inhibition at 75 g/ha [4] | inhibition at 75 g/ha (Monochoria vaginalis [6])

CC(C)[C@]12C[C@@H](OCc3ccc(Cl)cc3Cl)[C@](C)(C[C@@H]1Br)O2 [1-717, (1S,2R,4R,5S)-5-bromo-2-[(2,4-dichlorophenyl)methoxy]-1-methyl-4-isopropyl-7-oxabicyclo[2.2.1]heptane]
≥ 80%: inhibition at 75 g/ha (Digitaria ciliaris [1]) | pest or weed control at 1200 g/ha (Monochoria vaginalis [2]) | pest or weed control at 1200 g/ha (Scirpus juncoides) | pest or weed control at 1200 g/ha [3] | inhibition at 75 g/ha [4]

Cc1ccccc1CO[C@@H]1C[C@]2(C(C)C)O[C@@]1(C)C[C@@H]2I [1-741, (1S,2R,4R,5S)-5-iodo-1-methyl-2-[(2-methylphenyl)methoxy]-4-isopropyl-7-oxabicyclo[2.2.1]heptane]
≥ 80%: inhibition at 75 g/ha (Digitaria ciliaris [1]) | pest or weed control at 1200 g/ha (Monochoria vaginalis [2]) | pest or weed control at 1200 g/ha (Scirpus juncoides) | pest or weed control at 1200 g/ha [3] | inhibition at 75 g/ha (Echinochloa crus-galli) | inhibition at 75 g/ha (Digitaria ciliaris [5]) | inhibition at 75 g/ha [4]

CC(C)CC1C[C@]2(C)O[C@@]1(C(C)C)C[C@H]2OCc1ccccc1F (stereo partly drawn) [1-915, (1S,2R,4R)-2-((2-fluorobenzyl)oxy)-5-isobutyl-4-isopropyl-1-methyl-7-oxabicyclo[2.2.1]heptane]
≥ 80%: inhibition at 75 g/ha (Digitaria ciliaris [1]) | pest or weed control at 1200 g/ha (Monochoria vaginalis [2]) | pest or weed control at 1200 g/ha (Scirpus juncoides) | pest or weed control at 1200 g/ha [3] | inhibition at 75 g/ha [4]

COC1(OC)C[C@]2(C)O[C@@]1(C(C)C)C[C@H]2OCc1ccccc1F [1-935, (1R,4S,5R)-5-((2-fluorobenzyl)oxy)-1-isopropyl-2,2-dimethoxy-4-methyl-7-oxabicyclo[2.2.1]heptane]
≥ 80%: pest or weed control at 1200 g/ha (Monochoria vaginalis [2]) | pest or weed control at 1200 g/ha (Scirpus juncoides) | pest or weed control at 1200 g/ha [3] | inhibition at 75 g/ha (Digitaria ciliaris [5]) | inhibition at 75 g/ha [4]

CC(C)[C@]12C[C@@H](OCc3ccccc3F)[C@](C)(C[C@@H]1OCC1CC1)O2 [1-1603, (1S,2R,4R,5S)-5-(cyclopropylmethoxy)-2-[(2-fluorophenyl)methoxy]-1-methyl-4-isopropyl-7-oxabicyclo[2.2.1]heptane]
≥ 80%: inhibition at 75 g/ha (Digitaria ciliaris [1]) | pest or weed control at 1200 g/ha (Monochoria vaginalis [2]) | pest or weed control at 1200 g/ha (Scirpus juncoides) | pest or weed control at 1200 g/ha [3] | inhibition at 75 g/ha (Echinochloa crus-galli) | inhibition at 75 g/ha (Digitaria ciliaris [5]) | inhibition at 75 g/ha [4]

Cc1cccc(C)c1CO[C@@H]1C[C@]2(C(C)C)O[C@@]1(C)CC2=O [2-5, (1R,4S,5R)-5-((2,6-dimethylbenzyl)oxy)-1-isopropyl-4-methyl-7-oxabicyclo[2.2.1]heptan-2-one]
≥ 80%: inhibition at 75 g/ha (Digitaria ciliaris [1]) | pest or weed control at 1200 g/ha (Monochoria vaginalis [2]) | pest or weed control at 1200 g/ha (Scirpus juncoides) | pest or weed control at 1200 g/ha [3] | inhibition at 75 g/ha (Echinochloa crus-galli) | inhibition at 75 g/ha (Digitaria ciliaris [5]) | inhibition at 75 g/ha [4]

CC(C)[C@]12C[C@@H](OCc3cccc(F)c3F)[C@](C)(CC1=O)O2 [2-14, (1R,4S,5R)-5-((2,3-difluorobenzyl)oxy)-1-isopropyl-4-methyl-7-oxabicyclo[2.2.1]heptan-2-one]
≥ 80%: inhibition at 75 g/ha (Digitaria ciliaris [1]) | pest or weed control at 1200 g/ha (Monochoria vaginalis [2]) | pest or weed control at 1200 g/ha (Scirpus juncoides) | pest or weed control at 1200 g/ha [3] | inhibition at 75 g/ha (Echinochloa crus-galli) | inhibition at 75 g/ha (Digitaria ciliaris [5]) | inhibition at 75 g/ha [4]

CC(C)[C@]12C[C@@H](OCc3cc(F)ccc3F)[C@](C)(CC1=O)O2 [2-18, (1R,4S,5R)-5-((2,5-difluorobenzyl)oxy)-1-isopropyl-4-methyl-7-oxabicyclo[2.2.1]heptan-2-one]
≥ 80%: inhibition at 75 g/ha (Digitaria ciliaris [1]) | pest or weed control at 1200 g/ha (Scirpus juncoides) | pest or weed control at 1200 g/ha [3] | inhibition at 75 g/ha (Echinochloa crus-galli) | inhibition at 75 g/ha (Digitaria ciliaris [5]) | inhibition at 75 g/ha [4]

CC(C)[C@]12C[C@@H](OCc3c(Cl)cccc3Cl)[C@](C)(CC1=O)O2 [2-26, (1R,4S,5R)-5-((2,6-dichlorobenzyl)oxy)-1-isopropyl-4-methyl-7-oxabicyclo[2.2.1]heptan-2-one]
≥ 80%: inhibition at 75 g/ha (Digitaria ciliaris [1]) | pest or weed control at 1200 g/ha (Monochoria vaginalis [2]) | pest or weed control at 1200 g/ha (Scirpus juncoides) | pest or weed control at 1200 g/ha [3] | inhibition at 75 g/ha (Echinochloa crus-galli) | inhibition at 75 g/ha (Digitaria ciliaris [5]) | inhibition at 75 g/ha [4]

Cc1cccc(C)c1CO[C@@H]1C[C@@]2(C(C)C)C=C[C@]1(C)O2 [3-3, (1R,4S,5R)-5-[(2,6-dimethylphenyl)methoxy]-4-methyl-1-isopropyl-7-oxabicyclo[2.2.1]hept-2-ene]
≥ 80%: pest or weed control at 1200 g/ha (Monochoria vaginalis [2]) | pest or weed control at 1200 g/ha (Scirpus juncoides) | pest or weed control at 1200 g/ha [3] | inhibition at 75 g/ha [4]
